Results taken from patent US20230085307A1, “PYRIDAZINONE COMPOUND AND HERBICIDE” (NISSAN CHEMICAL CORPORATION, priority 2019, published 2023).

What was measured:
rice flat sedge = assay: Test Example 3: herbicidal effect by foliage application, Wagner pot (Table 18, symbol E); format: in vivo, rice flat sedge (Cyperus iria); details: 320 g/ha
Method in brief: (§1)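 Plants were sown in alluvial soil held under 0.1–0.5 cm standing water and grown 14 days in a greenhouse at 25–30 °C. An emulsifiable formulation, water-diluted to the set dose, was then sprayed onto the foliage, and effects were scored three weeks later using previously defined criteria.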

barnyard grass [1] = assay: Test Example 5: herbicidal effect by foliage application, plastic box (Table 20, symbol H); format: in vivo, barnyard grass (Echinochloa crus-galli)
Method in brief: (§2)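 Foliar spray test: emulsion formulation diluted in water to a set application rate, sprayed onto 14-day-old plants raised in diluvial soil at 25° C to 30° C under glass. Both herbicidal effect and crop effect rated visually three weeks later.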

southern crabgrass = assay: Test Example 5: herbicidal effect by foliage application, plastic box (Table 20, symbol F); format: in vivo, southern crabgrass (Digitaria ciliaris)
Method in brief: as §2

blackgrass = assay: Test Example 5: herbicidal effect by foliage application, plastic box (Table 20, symbol J); format: in vivo, blackgrass (Alopecurus myosuroides)
Method in brief: as §2

barnyard grass [2] = assay: Test Example 3: herbicidal effect by foliage application, Wagner pot (Table 18, symbol H); format: in vivo, barnyard grass (Echinochloa crus-galli); details: 320 g/ha
Method in brief: as §1

Italian ryegrass = assay: Test Example 5: herbicidal effect by foliage application, plastic box (Table 20, symbol K); format: in vivo, Italian ryegrass (Lolium multiflorum)
Method in brief: as §2

lambsquarters = assay: Test Example 5: herbicidal effect by foliage application, plastic box (Table 20, symbol O); format: in vivo, lambsquarters (Chenopodium album)
Method in brief: as §2

Chinese sprangletop = assay: Test Example 3: herbicidal effect by foliage application, Wagner pot (Table 18, symbol D); format: in vivo, chinese sprangletop (Leptochloa chinensis); details: 320 g/ha
Method in brief: as §1

persian speedwell = assay: Test Example 5: herbicidal effect by foliage application, plastic box (Table 20, symbol R); format: in vivo, Persian speedwell (Veronica persica)
Method in brief: as §2

redroot pigweed = assay: Test Example 5: herbicidal effect by foliage application, plastic box (Table 20, symbol N); format: in vivo, redroot pigweed (Amaranthus retroflexus)
Method in brief: as §2

velvetleaf = assay: Test Example 5: herbicidal effect by foliage application, plastic box (Table 20, symbol M); format: in vivo, velvetleaf (Abutilon theophrasti)
Method in brief: as §2

chickweed = assay: Test Example 5: herbicidal effect by foliage application, plastic box (Table 20, symbol P); format: in vivo, common chickweed (Stellaria media)
Method in brief: as §2

false cleavers = assay: Test Example 5: herbicidal effect by foliage application, plastic box (Table 20, symbol Q); format: in vivo, false cleavers (Galium spurium)
Text: [Test Example 5] Herbicidal Effect Test by Foliage Application
Sterilized diluvial soil was placed in a plastic box having a length of 21 cm, a width of 13 cm, and a depth of 7 cm. The seeds of each of southern crabgrass, green foxtail, barnyard grass, wild oat, blackgrass, Italian ryegrass, windgrass, velvetleaf, redroot pigweed, lambsquarters, chickweed, false cleavers, persian speedwell, corn, soybean, rice, wheat, beet, and rapeseed were sowed in a spot-like manner and covered with the soil having a thickness of about 1.5 cm. Thereafter, the plants were grown in a greenhouse at 25° C. to 30° C. After 14-day growth of the plants, the emulsion agent of the compound of the present invention prepared according to Formulation Example 2 was diluted with water so as to achieve a predetermined herbicide amount, and the diluted emulsion agent was uniformly applied to a foliage part with a small-sized spray. Three weeks after the herbicide application, the effect of the herbicide on each plant was evaluated according to the criteria of Test Example 1.

windgrass = assay: Test Example 5: herbicidal effect by foliage application, plastic box (Table 20, symbol L); format: in vivo, windgrass (Apera spica-venti)
Method in brief: as §2

wild oat = assay: Test Example 5: herbicidal effect by foliage application, plastic box (Table 20, symbol I); format: in vivo, wild oat (Avena fatua)
Method in brief: as §2

green foxtail = assay: Test Example 5: herbicidal effect by foliage application, plastic box (Table 20, symbol G); format: in vivo, green foxtail (Setaria viridis)
Method in brief: as §2

[3] = foliage application, AAH 320 g/ha, three weeks after application
[4] = amount of applied herbicide 320 g/ha, foliage application after 14-day growth, evaluated three weeks after application

With `Cc1nn(C)c(=O)c(-c2c(-c3ccc(Oc4ccccc4)cc3)sc3ccccc23)c1O` [1-149] the “herbicidal effect on E (rice flat sedge), rating 0-5” value (rice flat sedge) was 5 (Herbicidal rate of 90% or more (almost completely withered)), the “H: barnyard grass, herbicidal effect” value (barnyard grass [1]; [3]) was 3 (Herbicidal rate of 40% or more and less than 70%) and the “F: southern crabgrass, herbicidal effect” value (southern crabgrass; [3]) was 3 (Herbicidal rate of 40% or more and less than 70%). For the same molecule, the “J: blackgrass, herbicidal effect” value (blackgrass; [3]) was 0 (Herbicidal rate of 5% or less (almost no effect)), the “herbicidal effect on H (barnyard grass), rating 0-5” value (barnyard grass [2]) was 3 (Herbicidal rate of 40% or more and less than 70%) and the “K: Italian ryegrass, herbicidal effect” value (Italian ryegrass; [3]) was 0 (Herbicidal rate of 5% or less (almost no effect)). The “O: lambsquarters, herbicidal effect” value (lambsquarters; [3]) was 4 (Herbicidal rate of 70% or more and less than 90%), the “herbicidal effect on D (Chinese sprangletop), rating 0-5” value (Chinese sprangletop) was 3 (Herbicidal rate of 40% or more and less than 70%) and the “R: persian speedwell, herbicidal effect” value (persian speedwell; [3]) was 5 (Herbicidal rate of 90% or more (almost completely withered)). For the same molecule, the “N: redroot pigweed, herbicidal effect” value (redroot pigweed; [3]) was 5 (Herbicidal rate of 90% or more (almost completely withered)), the “M: velvetleaf, herbicidal effect” value (velvetleaf; [3]) was 2 (Herbicidal rate of 20% or more and less than 40%) and the “P: chickweed, herbicidal effect” value (chickweed; [3]) was 3 (Herbicidal rate of 40% or more and less than 70%). The “Q: false cleavers, herbicidal effect” value (false cleavers; [3]) was 5 (Herbicidal rate of 90% or more (almost completely withered)), the “L: windgrass, herbicidal effect” value (windgrass; [3]) was 0 (Herbicidal rate of 5% or less (almost no effect)) and the “I: wild oat, herbicidal effect” value (wild oat; [3]) was 0 (Herbicidal rate of 5% or less (almost no effect)). For the same molecule, the “G: green foxtail, herbicidal effect” value (green foxtail; [3]) was 4 (Herbicidal rate of 70% or more and less than 90%).
In the case of `CSc1ccccc1-c1sc2c(Cl)cccc2c1-c1c(O)c(C)nn(C)c1=O` [4-086], the “herbicidal effect on rice flat sedge (E)” value (rice flat sedge) is reported as 3 (Herbicidal rate of 40% or more and less than 70%), the “Herbicidal effect by foliage application, H: barnyard grass” value (barnyard grass [1]; [4]) is reported as 1 (Herbicidal rate of 5% or more and less than 20%) and the “Herbicidal effect by foliage application, F: southern crabgrass” value (southern crabgrass; [4]) is reported as 0 (Herbicidal rate of 5% or less (almost no effect)). The “Herbicidal effect by foliage application, J: blackgrass” value (blackgrass; [4]) was 0 (Herbicidal rate of 5% or less (almost no effect)), the “herbicidal effect on barnyard grass (H)” value (barnyard grass [2]) was 4 (Herbicidal rate of 70% or more and less than 90%) and the “Herbicidal effect by foliage application, K: Italian ryegrass” value (Italian ryegrass; [4]) was 0 (Herbicidal rate of 5% or less (almost no effect)). For the same molecule, the “Herbicidal effect by foliage application, O: lambsquarters” value (lambsquarters; [4]) was 3 (Herbicidal rate of 40% or more and less than 70%), the “herbicidal effect on Chinese sprangletop (D)” value (Chinese sprangletop) was 3 (Herbicidal rate of 40% or more and less than 70%) and the “Herbicidal effect by foliage application, R: persian speedwell” value (persian speedwell; [4]) was 5 (Herbicidal rate of 90% or more (almost completely withered)). For the same molecule, the “Herbicidal effect by foliage application, N: redroot pigweed” value (redroot pigweed; [4]) was 4 (Herbicidal rate of 70% or more and less than 90%), the “Herbicidal effect by foliage application, M: velvetleaf” value (velvetleaf; [4]) was 3 (Herbicidal rate of 40% or more and less than 70%) and the “Herbicidal effect by foliage application, P: chickweed” value (chickweed; [4]) was 5 (Herbicidal rate of 90% or more (almost completely withered)). The “Herbicidal effect by foliage application, Q: false cleavers” value (false cleavers; [4]) was 1 (Herbicidal rate of 5% or more and less than 20%), the “Herbicidal effect by foliage application, L: windgrass” value (windgrass; [4]) was 4 (Herbicidal rate of 70% or more and less than 90%) and the “Herbicidal effect by foliage application, I: wild oat” value (wild oat; [4]) was 0 (Herbicidal rate of 5% or less (almost no effect)). For the same molecule, the “Herbicidal effect by foliage application, G: green foxtail” value (green foxtail; [4]) was 3 (Herbicidal rate of 40% or more and less than 70%).
